Entries after “also recorded” stand apart in the source; their conditions may differ.
Key:
[1] = tested on: ovarian estradiol synthesis; experiment: Stimulation of ovarian oestrogen synthesis (HPG axis) in intact adult rats; format: in vivo, rat; settings: hormonally intact adult rats, daily for 10 days; quotient of peripheral estradiol values after and before treatment
Excerpt: The clinical use both of pure anti-oestrogens and of various SERMs for the treatment of premenopausal women is limited by their property of stimulating the ovaries through activation of the hypothalamic-pituitary-gonadal axis (HPG axis), which leads to the increase in peripheral estradiol levels (Palomba, S., Orio, F., Jr., Morelli, M., Russo, T., Pellicano, M., Zupi, E., Lombardi, G., Nappi, C., Panici, P. L., and Zullo, F. (2002). Raloxifene administration in premenopausal women with uterine leiomyomas: a pilot study. J Clin Endocrinol Metab 87, 3603-3608). This stimulation of the HPG axis is associated with penetration of the blood-brain barrier and penetration of the brain. To investigate the ovary-stimulating properties of the claimed pharmacological compounds, hormonally intact adult rats were treated with the substances daily for a period of 10 days. The study end point is the quotient of peripheral estradiol values after and before treatment.

endometriosis lesions = experiment: Endometriosis model in the rat (autologous transplantation); format: in vivo
Excerpt: Using intact adult female rats, experimental endometriosis was induced in the autologous transplantation model based on Vernon M. W. and Wilson E. A., 1985 (Fertil Steril. 44(5):684-694). A uterine horn was removed from animals that were exclusively in oestrus, the myometrium was separated from the endometrium and biopsies with dimensions of 4×4 mm were obtained from the endometrial tissue. Two uterine fragments were transplanted onto the inside of the abdominal wall (peritoneum) and two uterine fragments were transplanted onto the mesenterium of the same animal (4 fragments per animal). After 21 days the animals with endometriosis were laparotomized, and the size of the transplants was determined. The animals were treated after laparotomy and then daily in the morning with the stated dosages of the selected claimed substances by subcutaneous administration. Finally, 28 days after the start of treatment (49 days after transplantation), all the animals were laparotomized again and the size of the lesion was measured and was correlated with the size before the start of treatment.

[2] = tested on: bone mass and uterus weight; experiment: Antagonistic action on bone mass and uterus weight in hormonally intact rats; format: in vivo, Sprague-Dawley rats; settings: adult hormonally intact rats, oral 1-10 mg/kg, 2 months
Description: Application was oral, in peanut oil/ethanol. The animals were killed on the day after the last application and the tibia and uteri were removed. The uteri were weighed, fixed and prepared for optional histological investigations. Bone density was determined on long bones by pQCT (quantitative computed tomography), once before the treatment, once on the day of autopsy. The variations for this parameter were shown correspondingly between these two reference points (values below 100 correspond to a decrease in bone mass density, values above 100 to an increase). The control group was a group of animals from which the ovaries had been removed (OVX) (due to ovariectomy, as expected there is a decrease in density of the trabecular bone in the measured range over the period of the experiment). All other animals underwent a SHAM-OP (a sham operation) (without the ovaries being removed) in addition to the application treatment. The changes in relative uterus weights served as the reference for the anti-oestrogenic action.

Stimulation of ovarian oestrogen synthesis: factor at a dose of 3 mg/kg rat [1]: 1.2
Compound: CN(CCCCCCC1=C(c2cc(F)cc(F)c2)CCCc2cc(O)ccc21)CCCCS(=O)(=O)CCCC(F)(F)F [Example 44, 8-(3,5-Difluorophenyl)-9-[6-(methyl{4-[(4,4,4-trifluorobutyl)sulphonyl]butyl}amino)hexyl]-6,7-dihydro-5H-benzo[7]annulen-3-ol]
peripheral (blood) estradiol level of the treated animals (endometriosis lesions; animals of the FIG. 2C experiment (FIG. 2D)): does not lead to an increase in peripheral estradiol level above the physiological range; also recorded: None of the groups treated with example compound 44 in the stated dosages shows levels above or below the naturally occurring estradiol levels
reduction of lesion sizes, independent experiment (endometriosis lesions; rat, 0.3 mg/kg to 13 mg/kg, three dosages (FIG. 2C)): significant dose-dependent reduction of lesion sizes; also recorded: all three dosages lead to a significant reduction of the lesion
dosage with significant reduction in sizes of lesions (endometriosis lesions; rat, 28 days of treatment, 115 tested 0.1-1 mg/kg, 44 tested 0.3-10 mg/kg): ≥ 1 mg/kg
reduction of lesion size (endometriosis lesions; rat, s.c. daily, 4 weeks (FIG. 2A, FIG. 2B)): significant dose-dependent reduction of lesion size
effect on relative uterus weight (anti-oestrogenic action) [2]: dose-dependent anti-oestrogenic action on the uterus; also recorded: dose-dependent decrease
trabecular bone mass density of the tibia [2]: not reduced; also recorded: does not show a significant decrease in bone mass density at any of the tested dosages
